Experimental data: ChEMBL document CHEMBL4742387, “Condensed tricyclic compounds as protein kinase inhibitors” (2018)
Activity calls are given as the source filed them. No cut-off for these calls is given here.

Key:
SW-620 [1] = experiment: Synergistic antiproliferative activity against human SW-620 cells assessed as reduction in cell proliferation by measuring combination index in presence of Ali-sertib by MTT assay; type: functional
SW-620 [2] = experiment: Inhibition of colony formation of human SW-620 cells incubated for 11 days (Every 3 days medium is changed by fresh medium and compounds were added freshly) by crystal violet staining based assay; type: functional, cell-based
HCT-116 [3] = experiment: Synergistic antiproliferative activity against human HCT-116 cells assessed as reduction in cell proliferation by measuring combination index in presence of taxol by MTT assay; type: functional
DU-145 [4] = experiment: Antiproliferative activity against human DU-145 cells assessed as reduction in cell proliferation by CellTiter-Glo luminescent cell viability assay; type: functional
HCT-116 [5] = experiment: Synergistic antiproliferative activity against human HCT-116 cells assessed as reduction in cell proliferation by measuring combination index in presence of crizotinib by MTT assay; type: functional
SW-620 [6] = experiment: Synergistic antiproliferative activity against human SW-620 cells assessed as reduction in cell proliferation by measuring combination index in presence of Crizotinib by MTT assay; type: functional
SW-620 [7] = experiment: Synergistic antiproliferative activity against human SW-620 cells assessed as reduction in cell proliferation by measuring combination index in presence of ABT-751 by MTT assay; type: functional
BXPC-3 [8] = experiment: Synergistic antiproliferative activity against human BXPC-3 cells assessed as reduction in cell proliferation by measuring combination index in presence of crizotinib by MTT assay; type: functional
SK-MEL19 [9] = experiment: Synergistic antiproliferative activity against human SK-MEL19 cells assessed as reduction in cell proliferation by measuring combination index in presence of Elesclomol by MTT assay; type: functional
MV4-11 = experiment: Antiproliferative activity against human MV4-11 cells assessed as reduction in cell proliferation by CellTiter-Glo luminescent cell viability assay; type: functional; details: Homo sapiens, MV4-11
[10] = biological target: T1, Serine/threonine-protein kinase haspin (Homo sapiens) (UniProt Q8TF76); experiment: Inhibition of haspin in synchronized human SW620 cells assessed as reduction in IFNgamma-induced H3T3 phosphorylation pre-incubated for 1 hr before IFNgamma stimulation for 3 hrs by Western blot analysis; type: cell-based; details: SW-620, time 4.0 hrs
T1 sequence (whole entry): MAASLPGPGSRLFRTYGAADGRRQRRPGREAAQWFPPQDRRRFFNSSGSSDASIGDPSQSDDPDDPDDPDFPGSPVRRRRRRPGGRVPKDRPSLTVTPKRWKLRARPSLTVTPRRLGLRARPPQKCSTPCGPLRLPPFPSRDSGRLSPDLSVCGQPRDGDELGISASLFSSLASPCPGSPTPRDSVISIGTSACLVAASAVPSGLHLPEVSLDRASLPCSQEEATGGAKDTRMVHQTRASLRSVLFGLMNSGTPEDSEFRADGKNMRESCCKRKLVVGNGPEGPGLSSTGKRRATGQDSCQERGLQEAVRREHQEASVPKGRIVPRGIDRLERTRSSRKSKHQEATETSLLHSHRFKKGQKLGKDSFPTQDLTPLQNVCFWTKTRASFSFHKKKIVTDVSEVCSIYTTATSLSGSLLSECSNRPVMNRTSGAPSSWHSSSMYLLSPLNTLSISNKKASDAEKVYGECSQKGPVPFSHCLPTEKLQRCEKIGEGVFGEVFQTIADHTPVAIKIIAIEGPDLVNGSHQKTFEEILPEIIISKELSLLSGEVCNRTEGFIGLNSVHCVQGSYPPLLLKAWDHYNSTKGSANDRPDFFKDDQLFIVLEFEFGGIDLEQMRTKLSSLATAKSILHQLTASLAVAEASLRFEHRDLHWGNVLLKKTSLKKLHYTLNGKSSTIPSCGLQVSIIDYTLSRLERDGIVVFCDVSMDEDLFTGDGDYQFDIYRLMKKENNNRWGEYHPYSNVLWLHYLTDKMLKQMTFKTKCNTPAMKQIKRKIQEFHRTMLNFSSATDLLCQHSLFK

BXPC-3 [11] = experiment: Antiproliferative activity against human BXPC-3 cells assessed as reduction in cell proliferation by CellTiter-Glo luminescent cell viability assay; type: functional
HCT-116 [12] = experiment: Synergistic antiproliferative activity against human HCT-116 cells assessed as reduction in cell proliferation by measuring combination index in presence of Ali-sertib by MTT assay; type: functional
A549 [13] = experiment: Antiproliferative activity against human A549 cells assessed as reduction in cell proliferation by CellTiter-Glo luminescent cell viability assay; type: functional
Mus musculus [14] = experiment: Inhibition of CDK8 in athymic nude mouse xenografted with human SW-620 cells assessed as reduction in STAT1 S727 phosphorylation 5 mg/kg, po administered as single dose after 1 hr by Western blot analysis; type: functional, organism-based
HCT-116 [15] = experiment: Antiproliferative activity against human HCT-116 cells assessed as reduction in cell proliferation by CellTiter-Glo luminescent cell viability assay; type: functional
[16] = biological target: T2, Serine/threonine-protein kinase haspin (Homo sapiens, UniProt Q8TF76); experiment: Inhibition of haspin in human SW620 cells assessed as reduction in IFNgamma-induced H3T3 phosphorylation pre-incubated for 1 hr before IFNgamma stimulation for 3 hrs by Western blot analysis; type: cell-based, SW-620
T2 sequence (Q8TF76 whole entry): T1 sequence (whole entry)

SW-620 [17] = experiment: Synergistic antiproliferative activity against human SW-620 cells assessed as reduction in cell proliferation by measuring combination index in presence of oxaliplatin by MTT assay; type: functional
BXPC-3 [18] = experiment: Synergistic antiproliferative activity against human BXPC-3 cells assessed as reduction in cell proliferation by measuring combination index in presence of Elesclomol by MTT assay; type: functional
SW-620 [19] = experiment: Induction of apoptosis in human SW-620 cells at 0.5 to 5 uM incubated for 24 hrs by propidium iodide staining based assay; type: functional, cell-based; details: dose 0.5-5 µM
DU-145 [20] = experiment: Synergistic antiproliferative activity against human DU-145 cells assessed as reduction in cell proliferation by measuring combination index in presence of crizotinib by MTT assay; type: functional
SW-620 [21] = experiment: Antiproliferative activity against human SW-620 cells assessed as reduction in cell proliferation by CellTiter-Glo luminescent cell viability assay; type: functional; details: Homo sapiens, SW-620
SK-MEL19 [22] = experiment: Antiproliferative activity against human SK-MEL19 cells assessed as reduction in cell proliferation by CellTiter-Glo luminescent cell viability assay; type: functional
SW-620 [23] = experiment: Synergistic antiproliferative activity against human SW-620 cells assessed as reduction in cell proliferation by measuring combination index in presence of taxol by MTT assay; type: functional
DU-145 [24] = experiment: Synergistic antiproliferative activity against human DU-145 cells assessed as reduction in cell proliferation by measuring combination index in presence of Ali-sertib by MTT assay; type: functional
DU-145 [25] = experiment: Synergistic antiproliferative activity against human DU-145 cells assessed as reduction in cell proliferation by measuring combination index in presence of Taxol by MTT assay; type: functional
MDA-MB-231 [26] = experiment: Antiproliferative activity against human MDA-MB-231 cells assessed as reduction in cell proliferation by CellTiter-Glo luminescent cell viability assay; type: functional; details: Homo sapiens, MDA-MB-231
A549 [27] = experiment: Synergistic antiproliferative activity against human A549 cells assessed as reduction in cell proliferation by measuring combination index in presence of Elesclomol by MTT assay; type: functional
[28] = biological target: Cyclin-dependent kinase 8 (Homo sapiens, UniProt P49336); experiment: Inhibition of CDK8 in human SW-620 cells assessed as reduction in STAT1 S727 phosphorylation pre-incubated for 1 hr before IFNgamma stimulation for 3 hrs by Western blot analysis; type: cell-based
SW-620 [29] = experiment: Synergistic antiproliferative activity against human SW-620 cells assessed as reduction in cell proliferation by measuring combination index in presence of Elesclomol by MTT assay; type: functional
SW-620 [30] = experiment: Induction of cell cycle arrest in human SW-620 cells assessed as accumulation at G2M phase at 0.5 to 5 uM incubated for 24 hrs by propidium iodide staining based assay; type: functional; details: dose 0.5-5 µM
SK-MEL19 [31] = experiment: Synergistic antiproliferative activity against human SK-MEL19 cells assessed as reduction in cell proliferation by measuring combination index in presence of Crizotinib by MTT assay; type: functional
MDA-MB-231 [32] = experiment: Synergistic antiproliferative activity against human MDA-MB-231 cells assessed as reduction in cell proliferation by measuring combination index in presence of Elesclomol by MTT assay; type: functional
Mus musculus [33] = experiment: Inhibition of CDK8 in athymic nude mouse xenografted with human SW-620 cells assessed as reduction in STAT1 S727 phosphorylation 5 mg/kg, po administered as single dose after 4 hrs by Western blot analysis; type: functional, organism-based
MOLM-13 = experiment: Antiproliferative activity against human MOLM-13 cells assessed as reduction in cell proliferation by CellTiter-Glo luminescent cell viability assay; type: functional; details: Homo sapiens, MOLM-13

Cyclin-dependent kinase 8, sequence (P49336 whole entry): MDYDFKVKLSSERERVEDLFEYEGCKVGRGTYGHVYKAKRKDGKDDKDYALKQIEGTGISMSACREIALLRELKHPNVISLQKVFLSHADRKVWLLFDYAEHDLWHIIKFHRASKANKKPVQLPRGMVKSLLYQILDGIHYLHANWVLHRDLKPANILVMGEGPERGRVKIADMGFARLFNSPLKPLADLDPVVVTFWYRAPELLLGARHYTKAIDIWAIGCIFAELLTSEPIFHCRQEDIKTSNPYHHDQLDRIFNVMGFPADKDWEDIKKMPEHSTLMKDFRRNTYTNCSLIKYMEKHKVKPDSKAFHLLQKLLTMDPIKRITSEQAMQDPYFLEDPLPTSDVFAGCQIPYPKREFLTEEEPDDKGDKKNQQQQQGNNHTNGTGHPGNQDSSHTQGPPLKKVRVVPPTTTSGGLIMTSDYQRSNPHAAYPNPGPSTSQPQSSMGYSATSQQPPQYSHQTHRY

EC50 (SW-620 [2]): 51 nM
GI50 (DU-145 [4]): 5000 nM
GI50 (MV4-11): 115 nM
INH [10]: 1.5 10^-8mol/L
GI50 (BXPC-3 [11]): 5000 nM
GI50 (A549 [13]): 5000 nM
GI50 (HCT-116 [15]): 5000 nM
IC50 [16]: 1.6 nM
GI50 (SW-620 [21]): 3390 nM
GI50 (SK-MEL19 [22]): 1250 nM
GI50 (MDA-MB-231 [26]): 3500 nM
IC50 [28]: 1.5 nM
GI50 (MOLM-13): 349 nM
SMILES: CCn1c(C(N)=O)cc2c1-c1ccncc1OC2(C)C
CI (SW-620 [1]): 0.52
CI (HCT-116 [3]): 0.63
CI (HCT-116 [5]): 0.58
CI (SW-620 [6]): 0.65
CI (SW-620 [7]): 0.18
CI (BXPC-3 [8]): 0.72
CI (SK-MEL19 [9]): 0.49
CI (HCT-116 [12]): 0.64
inhibition (Mus musculus [14]): Active
CI (SW-620 [17]): 0.53
CI (BXPC-3 [18]): 0.25
Activity (SW-620 [19]): Dose-dependent effect
CI (DU-145 [20]): 0.44
CI (SW-620 [23]): 0.28
CI (DU-145 [24]): 0.65
CI (DU-145 [25]): 0.21
CI (A549 [27]): 0.63
CI (SW-620 [29]): 0.05
Activity (SW-620 [30]): Dose-dependent effect
CI (SK-MEL19 [31]): 0.55
CI (MDA-MB-231 [32]): 0.59
inhibition (Mus musculus [33]): Active
